Where two headings read alike, the source gives them in different places.
Tests used:
Format in all cases: biochemical
Conditions in all cases: replicate number in parentheses
[1] = biological target: KAT7+BRPF2+EAF6+ING5 4 protein complex (Homo sapiens (Human), UniProt O95251); test: KAT7 BRPF2 assay (SAMDI-MS acetylation of H3 1-21 peptide)
[2] = biological target: KAT7+JADE1+EAF6+ING5 4 protein complex (Homo sapiens (Human), UniProt O95251); test: KAT7 JADE1 assay (SAMDI-MS acetylation of H3 1-21 peptide)
[3] = biological target: KAT6A Full length enzyme (Homo sapiens (Human), UniProt Q92794); test: KAT6A assay (SAMDI-MS acetylation of H3 1-21 peptide)
[4] = biological target: KAT5 Full length enzyme (Homo sapiens (Human), UniProt Q92993); test: KAT5 assay (SAMDI-MS acetylation of H4 1-21 peptide)
[5] = biological target: KAT8 Full length enzyme (Homo sapiens (Human), UniProt Q9H7Z6); test: KAT8 assay (SAMDI-MS acetylation of H3 1-21 peptide)
[6] = Morrison equation fit, read-out: KAT7 BRPF2 Ki (nM) (replicate number)
[7] = Morrison equation fit, read-out: KAT7 JADE1 Ki (nM) (replicate number)
[8] = Morrison equation fit, read-out: KAT6A Ki (nM) (replicate number)
[9] = Morrison equation fit, read-out: KAT5 Ki (nM) (replicate number)
[10] = Morrison equation fit, read-out: KAT8 Ki (nM) (replicate number)
[11] = read-out: KAT7 JADE1 Ki (nM) (replicate)
[12] = read-out: KAT6A Ki (nM) (replicate)

KAT5 Full length enzyme, sequence (Q92993 whole entry): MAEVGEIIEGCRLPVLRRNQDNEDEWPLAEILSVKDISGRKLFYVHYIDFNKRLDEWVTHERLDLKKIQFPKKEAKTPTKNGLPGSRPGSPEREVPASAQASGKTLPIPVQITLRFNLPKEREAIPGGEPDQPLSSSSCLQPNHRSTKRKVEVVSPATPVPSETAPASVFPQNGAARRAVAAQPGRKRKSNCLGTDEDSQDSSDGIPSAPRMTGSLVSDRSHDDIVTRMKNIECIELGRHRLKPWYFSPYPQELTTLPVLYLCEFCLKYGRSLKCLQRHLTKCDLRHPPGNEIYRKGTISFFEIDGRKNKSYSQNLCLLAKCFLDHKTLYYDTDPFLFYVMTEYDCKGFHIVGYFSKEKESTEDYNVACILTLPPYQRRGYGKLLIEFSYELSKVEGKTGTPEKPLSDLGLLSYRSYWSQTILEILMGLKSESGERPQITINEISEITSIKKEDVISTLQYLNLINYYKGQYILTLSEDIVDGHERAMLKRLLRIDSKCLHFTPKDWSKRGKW
KAT8 Full length enzyme, sequence (Q9H7Z6 whole entry): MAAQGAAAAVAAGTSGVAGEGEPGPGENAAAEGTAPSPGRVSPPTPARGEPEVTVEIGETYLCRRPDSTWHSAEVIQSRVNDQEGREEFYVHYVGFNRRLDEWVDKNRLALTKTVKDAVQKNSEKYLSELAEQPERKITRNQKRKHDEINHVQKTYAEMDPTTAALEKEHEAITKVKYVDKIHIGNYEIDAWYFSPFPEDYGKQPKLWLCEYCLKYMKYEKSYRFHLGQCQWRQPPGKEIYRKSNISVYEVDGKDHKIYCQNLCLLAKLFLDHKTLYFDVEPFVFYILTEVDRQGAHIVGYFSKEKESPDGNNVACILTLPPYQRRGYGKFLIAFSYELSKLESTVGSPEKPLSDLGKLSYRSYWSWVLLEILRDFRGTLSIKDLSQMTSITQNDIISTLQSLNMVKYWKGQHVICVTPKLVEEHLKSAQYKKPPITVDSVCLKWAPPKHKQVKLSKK
KAT6A Full length enzyme, sequence (Q92794 other isoform, or with tags, fused parts or gaps): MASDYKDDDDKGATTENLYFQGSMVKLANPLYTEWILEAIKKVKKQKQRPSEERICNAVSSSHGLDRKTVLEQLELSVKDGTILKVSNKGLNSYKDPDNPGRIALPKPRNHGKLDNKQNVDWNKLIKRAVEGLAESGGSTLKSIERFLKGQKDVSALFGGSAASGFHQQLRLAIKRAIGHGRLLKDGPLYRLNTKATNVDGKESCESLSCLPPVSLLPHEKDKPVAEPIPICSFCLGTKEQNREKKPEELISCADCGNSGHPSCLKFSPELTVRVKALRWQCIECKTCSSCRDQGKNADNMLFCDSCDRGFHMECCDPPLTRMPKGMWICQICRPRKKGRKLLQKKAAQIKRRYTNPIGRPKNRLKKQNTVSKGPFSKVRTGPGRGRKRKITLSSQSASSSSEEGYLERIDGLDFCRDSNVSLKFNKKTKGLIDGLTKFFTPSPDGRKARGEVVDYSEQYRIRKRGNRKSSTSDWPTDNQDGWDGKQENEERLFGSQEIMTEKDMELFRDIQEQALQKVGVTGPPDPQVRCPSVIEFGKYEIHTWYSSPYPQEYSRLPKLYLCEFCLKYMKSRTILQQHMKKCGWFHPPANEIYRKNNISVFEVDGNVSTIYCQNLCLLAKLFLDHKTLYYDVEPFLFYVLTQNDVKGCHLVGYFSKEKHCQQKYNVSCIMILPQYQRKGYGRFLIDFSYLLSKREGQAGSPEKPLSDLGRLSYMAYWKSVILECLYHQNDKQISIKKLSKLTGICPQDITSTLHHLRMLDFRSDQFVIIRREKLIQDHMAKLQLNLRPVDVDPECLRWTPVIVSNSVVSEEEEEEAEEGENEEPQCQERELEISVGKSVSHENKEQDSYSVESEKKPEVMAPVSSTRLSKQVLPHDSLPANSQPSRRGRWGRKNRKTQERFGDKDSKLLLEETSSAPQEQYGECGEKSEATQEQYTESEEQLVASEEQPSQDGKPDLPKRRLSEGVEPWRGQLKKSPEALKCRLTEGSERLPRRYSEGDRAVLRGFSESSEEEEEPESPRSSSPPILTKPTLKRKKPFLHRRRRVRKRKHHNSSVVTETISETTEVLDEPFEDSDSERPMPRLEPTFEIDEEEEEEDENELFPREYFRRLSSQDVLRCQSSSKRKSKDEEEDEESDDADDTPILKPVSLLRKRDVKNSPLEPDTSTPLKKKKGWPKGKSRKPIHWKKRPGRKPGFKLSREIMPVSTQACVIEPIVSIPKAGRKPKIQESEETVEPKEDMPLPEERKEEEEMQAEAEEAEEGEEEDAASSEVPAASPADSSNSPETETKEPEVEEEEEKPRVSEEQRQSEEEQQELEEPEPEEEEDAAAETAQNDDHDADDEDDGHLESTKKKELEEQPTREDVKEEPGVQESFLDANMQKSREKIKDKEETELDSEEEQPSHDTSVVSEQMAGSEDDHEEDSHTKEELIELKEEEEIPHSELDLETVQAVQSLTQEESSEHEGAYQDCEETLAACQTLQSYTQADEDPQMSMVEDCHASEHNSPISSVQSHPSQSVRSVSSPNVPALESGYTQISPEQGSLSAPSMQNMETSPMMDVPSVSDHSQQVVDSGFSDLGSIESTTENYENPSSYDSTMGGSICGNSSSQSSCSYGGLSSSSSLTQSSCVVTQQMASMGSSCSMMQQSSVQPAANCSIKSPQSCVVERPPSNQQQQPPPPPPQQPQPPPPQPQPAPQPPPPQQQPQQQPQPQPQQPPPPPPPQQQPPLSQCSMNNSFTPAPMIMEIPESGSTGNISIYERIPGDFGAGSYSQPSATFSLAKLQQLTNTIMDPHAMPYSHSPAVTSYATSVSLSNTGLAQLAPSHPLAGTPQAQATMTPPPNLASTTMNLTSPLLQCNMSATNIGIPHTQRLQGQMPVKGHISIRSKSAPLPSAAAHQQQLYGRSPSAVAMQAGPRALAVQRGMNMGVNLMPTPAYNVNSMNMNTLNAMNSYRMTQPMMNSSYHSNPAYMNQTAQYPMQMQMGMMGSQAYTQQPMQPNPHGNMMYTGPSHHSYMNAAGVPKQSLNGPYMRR

Row | Compound | Ki [1, 6] | Ki [2, 7] | Ki [3, 8] | Ki [4, 9] | Ki [5, 10] | Ki ([1]; read-out: KAT7 BRPF2 Ki (nM) (replicate)) | Ki [2, 11] | Ki [3, 12] | Ki ([4]; read-out: KAT5 Ki (nM) (replicate)) | Ki ([5]; read-out: KAT8 Ki (nM) (replicate))
1 | COc1cc2c(NS(=O)(=O)c3c(OC)cc(C4COCC(C)(C)O4)cc3OC)noc2cc1Nc1cc(C2CC2)n[nH]1 (single isomer, unassigned) [Example 183, N-{6-[(3-cyclopropyl-1 H-pyrazol-5-yl)amino]-5-methoxy-1,2-benzoxazol-3-yl}-4-(6,6-dimethyl-1,4-dioxan-2-yl)-2,6-dimethoxybenzene-1-sulfonamide] | 2.1 nM | 5.7 nM | 2.1 nM | – | – | – | – | – | – | –
2 | COc1cc2c(NS(=O)(=O)c3c(OC)cc(C(C)N4CCOCC4)cc3OC)noc2cc1Nc1cc(C2CC2)n[nH]1 (single isomer, unassigned) [Example 207, N-{6-[(3-cyclopropyl-1 H-pyrazol-5-yl)amino]-5-methoxy-1,2-benzoxazol-3-yl}-2,6-dimethoxy-4-[1-(morpholin-4-yl)ethyl]benzene-1-sulfonamide] | 4 nM | 11.5 nM | 2.3 nM | – | – | – | – | – | – | –
3 | COc1cc2c(NS(=O)(=O)c3c(OC)cc(-c4cnn(C)n4)cc3OC)noc2cc1Nc1cc(C2CC2)n[nH]1 [Example 212, N-{6-[(3-cyclopropyl-1 H-pyrazol-5-yl)amino]-5-methoxy-1,2-benzoxazol-3-yl}-2,6-dimethoxy-4-(2-methyl-2H-1,2,3-triazol-4-yl)benzene-1-sulfonamide] | – | 11.1 nM | 0.7 nM | 159 nM | 1410 nM | – | – | – | – | –
4 | COc1cc2c(NS(=O)(=O)c3c(OC)cc(-c4ncc(CN(C)C)cn4)cc3OC)noc2cc1Nc1cc(C2CC2)n[nH]1 [Example 223, N-{6-[(3-cyclopropyl-1H-pyrazol-5-yl)amino]-5-methoxy-1,2-benzoxazol-3-yl}-4-{5-[(dimethylamino)methyl]pyrimidin-2-yl}-2,6-dimethoxybenzene-1-sulfonamide] | – | 4 nM | 0.4 nM | 25.4 nM | 679 nM | – | – | – | – | –
5 | COc1cc2c(NS(=O)(=O)c3c(OC)cc(-c4nccc(C(C)N(C)C)n4)cc3OC)noc2cc1Nc1cc(C2CC2)n[nH]1 (stereo not drawn) [Example 227, N-{6-[(3-cyclopropyl-1 H-pyrazol-5-yl)amino]-5-methoxy-1,2-benzoxazol-3-yl}-4-{4-[1-(dimethylamino)ethyl]pyrimidin-2-yl}-2,6-dimethoxybenzene-1-sulfonamide] | – | 6.9 nM | 0.4 nM | 218 nM | 3490 nM | – | – | – | – | –
6 | CCc1cc(Nc2cc3onc(NS(=O)(=O)c4c(OC)cc(-c5ccn(C)n5)cc4OC)c3cc2OC)[nH]n1 [Example 230, N-{6-[(3-ethyl-1H-pyrazol-5-yl)amino]-5-methoxy-1,2-benzoxazol-3-yl}-2,6-dimethoxy-4-(1-methyl-1 H-pyrazol-3-yl)benzene-1-sulfonamide] | – | 2.3 nM | 1 nM | 158 nM | 1960 nM | – | – | – | – | –
7 | COc1cc2c(NS(=O)(=O)c3c(OC)cc(-n4ncccc4=O)cc3OC)noc2cc1Nc1cc(C2CC2)n[nH]1 [Example 243, N-{6-[(3-cyclopropyl-1 H-pyrazol-5-yl)amino]-5-methoxy-1,2-benzoxazol-3-yl}-2,6-dimethoxy-4-(6-oxopyridazin-1(6H)-yl)benzene-1-sulfonamide] | – | 16.9 nM | 1.5 nM | 168 nM | 872 nM | – | – | – | – | –
8 | COc1cc2c(NS(=O)(=O)c3c(OC)cc(N(C)C4CCOC4)cc3OC)noc2cc1Nc1cc(C2CC2)[nH]n1 (stereo not drawn) [Example 247, N-{6-[(3-cyclopropyl-1H-pyrazol-5-yl)amino]-5-methoxy-1,2-benzoxazol-3-yl}-2,6-dimethoxy-4-[methyl(oxolan-3-yl)amino]benzene-1-sulfonamide] | – | – | – | – | – | 1.7 nM | 2.7 nM | 0.5 nM | – | –
9 | COc1cc2c(NS(=O)(=O)c3c(OC)cc(C(=O)N4CC[C@H](F)C4)cc3OC)noc2cc1Nc1cc(C2CC2)n[nH]1 [Example 259, N-{6-[(3-cyclopropyl-1H-pyrazol-5-yl)amino]-5-methoxy-1,2-benzoxazol-3-yl}-4-[(3S)-3-fluoropyrrolidine-1-carbonyl]-2,6-dimethoxybenzene-1-sulfonamide] | – | – | – | – | – | – | 6.7 nM | 1.2 nM | 85.1 nM | 4990 nM

— patent US20250122183A1 (Pfizer Inc., priority 2023, published 2025)
